Laboratory results published in patent publication US20250230226A1, “PLXDC1/PLXDC2 ACTIVATORS AND THEIR USE IN THE TREATMENT OF BLOOD VESSEL DISORDERS” (THE REGENTS OF THE UNIVERSITY OF CALIFORNIA, priority 2019, published 2025).

Columns and labels:
[1] = biological target: T1, PLXDC2 (Homo sapiens, UniProt Q6UX71); experiment: Gfi1b promotor luciferase receptor activation assay, PLXDC2-expressing cells (FIG. 18B); assay type: cell-based; conditions: compound treatments 1 day
T1 construct: host or cells: PLXDC2-expressing cells
From the text: (§1) FIG. 18A-B show activation of PLXDC1 and PLXDC2 by small molecules. […] All compound treatments were done for 1 day. Basal promotor activity of the PLXDC1-expressing cells is defined as 1.
(§2) By linking its promotor to a luciferase reporter gene, this example developed a PLXDC1 receptor activation assay.

[2] = tested on: pathogenic blood vessels; experiment: Ischemia-induced retinopathy in vivo (FIG. 22); design: species or system mice; conditions: subcutaneous injection during return to room air; n=10 retinas
From the text: A. Upper graph: Schematic diagram of the experimental design for ischemia-induced retinopathy. The high oxygen environment caused blood vessel loss (vaso-obliteration). In room air, loss of vessels triggered abnormal angiogenesis that generated pathogenic blood vessels on the top of the retina (marked in yellow in D). Treatment was applied during the return to room air by subcutaneous injection. Lower graph: quantitation of healthy blood vessels, vaso-obliteration and pathogenic blood vessels between the control (n=10) and treated retinas (n=10). […] B. Representative images of flat-mounted control retinas (upper two images) and retinas from compound treated mice (lower two images). Red signal is blood vessel marker. C. The same retinas in B with vaso-obliteration areas marked in white color. These images illustrate that compound-treated retinas went through vaso-obliteration like the control retinas. D. The same retinas in B with pathogenic blood vessels marked in yellow color.
FIG. 22A includes a schematic diagram of the experimental design for ischemia-induced retinopathy. The high oxygen environment caused blood vessel loss (vaso-obliteration). In room air, loss of vessels triggered abnormal angiogenesis that generated pathogenic blood vessels on the top of the retina (marked in yellow in FIG. 22D). Treatment was applied during the return to room air by subcutaneous injection. […]

[3] = biological target: T2, PLXDC1 (Homo sapiens, UniProt Q8IUK5); experiment: Gfi1b promotor luciferase receptor activation assay, PLXDC1-expressing cells (FIG. 18A, 19); assay type: cell-based; conditions: compound treatments 1 day; basal activity defined as 1
T2 construct: expressed in transfected cells
T2 sequence (Q8IUK5 19-500): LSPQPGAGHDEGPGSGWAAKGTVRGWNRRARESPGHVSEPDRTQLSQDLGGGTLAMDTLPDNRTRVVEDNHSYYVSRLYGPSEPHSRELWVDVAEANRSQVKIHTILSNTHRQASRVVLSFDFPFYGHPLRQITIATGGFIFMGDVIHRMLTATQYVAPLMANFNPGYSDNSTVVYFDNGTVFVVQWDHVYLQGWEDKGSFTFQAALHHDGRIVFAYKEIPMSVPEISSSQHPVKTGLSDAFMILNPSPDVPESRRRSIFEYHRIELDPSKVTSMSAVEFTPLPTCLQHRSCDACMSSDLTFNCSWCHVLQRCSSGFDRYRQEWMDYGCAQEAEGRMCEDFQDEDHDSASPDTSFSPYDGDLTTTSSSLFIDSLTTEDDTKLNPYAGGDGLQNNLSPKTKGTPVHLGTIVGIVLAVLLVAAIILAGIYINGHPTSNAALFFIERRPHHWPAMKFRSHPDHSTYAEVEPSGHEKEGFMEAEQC
From the text: as §1
Basal promotor activity of the PLXDC1-expressing cells is defined as 1. The basal activity of PLXDC1-expressing cells (Control) are higher than cells without PLXDC1, consistent promotor activation by the ectopic expression of the receptor without ligands.
as §2

T1 sequence (Q6UX71 31-529): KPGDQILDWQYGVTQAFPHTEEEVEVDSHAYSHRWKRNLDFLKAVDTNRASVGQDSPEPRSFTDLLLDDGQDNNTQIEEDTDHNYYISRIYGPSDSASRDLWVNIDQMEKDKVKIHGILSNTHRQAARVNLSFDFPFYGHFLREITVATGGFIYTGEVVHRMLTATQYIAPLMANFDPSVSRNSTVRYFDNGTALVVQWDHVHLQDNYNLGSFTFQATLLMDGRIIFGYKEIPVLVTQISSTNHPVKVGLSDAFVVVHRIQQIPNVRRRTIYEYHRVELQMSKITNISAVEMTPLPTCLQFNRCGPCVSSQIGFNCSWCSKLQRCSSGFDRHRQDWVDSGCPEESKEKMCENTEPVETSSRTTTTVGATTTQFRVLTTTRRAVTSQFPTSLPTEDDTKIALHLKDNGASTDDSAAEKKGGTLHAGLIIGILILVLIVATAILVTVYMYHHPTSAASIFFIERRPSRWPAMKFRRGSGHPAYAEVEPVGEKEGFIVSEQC

For `CCCCCCCCCCCCCCOc1ccc(S(=O)(=O)c2cnc3ccc([S+](C)[O-])cc3c2N2CCC(N3CCC(N4CCN(C)CC4)CC3)CC2)cc1` (stereo not shown) [Compound 346], the “Gfi1b promotor activity in PLXDC2-expressing cells” value [1] was “activated the promotor activity in PLXDC2-expressing cells”, the Healthy blood vessels [2] was “improving the amount of healthy blood vessels” and the Pathogenic blood vessels [2] was “highly suppressed pathogenic blood vessels”. The “Gfi1b promotor activity in PLXDC1-expressing cells” value [3] was “highly activated the promotor activity”.
